Where “and” joins values, the source holds several entries; their conditions need not be identical. Identical values can stand only once. Entries after “also recorded” stand apart in the source; their conditions may differ.
How the values were obtained:
[1] = Phase 1 drug-drug interaction study: single-dose pemigatinib PK alone or with itraconazole or rifampin; details: for Tmax: median
[2] = Phase 1 drug-drug interaction study: safety and tolerability (TEAEs); details: for Safety and tolerability (overall conclusion): healthy male and female volunteers
Protocol: In addition, this study also evaluates the safety and tolerability of pemigatinib when administered alone or in combination with itraconazole or rifampin. Safety and tolerability is assessed by monitoring adverse events, vital signs, physical examinations, 12-lead ECGs, and clinical laboratory blood and urine sample assessments. Pharmacokinetic endpoints include tmax, AUC0-t, AUC0-∞, t1/2, CL/F, and Vz/F.
Vital signs (oral temperature; respiratory rate; automated, seated blood pressure; and pulse) are obtained at screening, check-in, and follow-up; at 0 hour (predose) on Days 1 and 8; and at approximately 1, 2, 3, 6, and 24 hours after the morning dose on Day 4 and Day 9. Clinical safety laboratory assessments are performed at screening; on Days −1, 2, 5, 9, 10, and 11; and at follow-up. A serum pregnancy is obtained at screening and follow-up. A urine pregnancy test is obtained at check-in for each visit for all women. On Day 8, a 12-lead ECG is performed predose, 2 hours postdose, and approximately 24 hours postdose. On other days, 12-lead ECGs are performed only at predose.
Vital signs (oral temperature; respiratory rate; automated, seated blood pressure; and pulse) are obtained at screening, check-in and follow-up; at 0 hour (predose) on Days 1 and 11; and at approximately 1, 2, 3, 6, and 24 hours after the morning dose on Days 4, 10, and 12. Clinical safety laboratory assessments are performed at screening; on Days −1, 2, 8, and 13; and at follow-up. A serum pregnancy test is obtained at screening and follow-up. A urine pregnancy test is obtained at check-in for each visit for all women. On Day 11, a 12-lead ECG is performed predose, 2 hours postdose, and approximately 24 hours postdose. On other days, 12-lead ECGs is performed only at predose.

[3] = human, in vivo
CYP3A4 = biological target: T1, CYP3A4 (Homo sapiens, UniProt P08684); test: In vitro metabolism of pemigatinib by recombinant human CYP3A4; assay type: in vitro ADME
T1 construct: host or cells: in silico (Simcyp virtual population); observed values come from healthy volunteers
T1 sequence (P08684 whole entry): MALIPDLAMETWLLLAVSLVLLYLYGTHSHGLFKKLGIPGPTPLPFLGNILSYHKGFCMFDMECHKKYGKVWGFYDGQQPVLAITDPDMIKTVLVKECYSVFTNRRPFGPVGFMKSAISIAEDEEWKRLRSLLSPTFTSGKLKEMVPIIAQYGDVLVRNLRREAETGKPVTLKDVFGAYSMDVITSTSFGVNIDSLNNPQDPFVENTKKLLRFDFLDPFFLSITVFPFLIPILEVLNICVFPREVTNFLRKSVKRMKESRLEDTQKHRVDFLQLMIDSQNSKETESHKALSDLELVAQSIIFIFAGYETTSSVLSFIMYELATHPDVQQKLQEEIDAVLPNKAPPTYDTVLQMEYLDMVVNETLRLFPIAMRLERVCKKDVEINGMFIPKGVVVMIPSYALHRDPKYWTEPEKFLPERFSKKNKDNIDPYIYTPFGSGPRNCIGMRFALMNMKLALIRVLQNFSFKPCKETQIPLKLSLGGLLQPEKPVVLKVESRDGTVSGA
Protocol: (§1) In vitro metabolism studies were conducted to determine the human cytochrome P450 (CYP) isozyme(s) capable of metabolizing pemigatinib.
(§2) In vitro metabolism studies were conducted to determine the individual human recombinant CYP isozymes capable of metabolizing pemigatinib (1 μM) and included CYP1A2, CYP2B6, CYP2C8, CYP2C9, CYP2C19, CYP2D6, or CYP3A4.

CYP2D6 = CYP2D6 (Homo sapiens, UniProt P10635); test: In vitro metabolism of pemigatinib by recombinant human CYP2D6; assay type: in vitro ADME
Chain of CYP2D6 (P10635 whole entry): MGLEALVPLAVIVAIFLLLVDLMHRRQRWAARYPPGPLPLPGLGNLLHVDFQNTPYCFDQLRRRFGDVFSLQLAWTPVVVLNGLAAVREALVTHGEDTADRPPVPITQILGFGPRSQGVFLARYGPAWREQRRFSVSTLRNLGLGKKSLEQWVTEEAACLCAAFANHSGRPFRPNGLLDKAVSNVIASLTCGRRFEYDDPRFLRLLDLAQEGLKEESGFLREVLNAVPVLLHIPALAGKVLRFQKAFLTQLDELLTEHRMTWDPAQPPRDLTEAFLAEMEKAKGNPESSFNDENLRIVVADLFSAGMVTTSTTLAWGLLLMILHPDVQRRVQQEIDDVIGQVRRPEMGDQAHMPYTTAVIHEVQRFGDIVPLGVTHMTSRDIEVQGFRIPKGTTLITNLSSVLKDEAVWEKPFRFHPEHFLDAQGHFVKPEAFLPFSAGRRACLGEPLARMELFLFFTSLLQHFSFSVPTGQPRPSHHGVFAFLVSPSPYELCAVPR
Protocol: as §1, §2

CYP2C8 = biological target: T2, CYP2C8 (Homo sapiens, UniProt P10632); test: In vitro metabolism of pemigatinib by recombinant human CYP2C8; assay type: in vitro ADME
T2 sequence (P10632 1-490): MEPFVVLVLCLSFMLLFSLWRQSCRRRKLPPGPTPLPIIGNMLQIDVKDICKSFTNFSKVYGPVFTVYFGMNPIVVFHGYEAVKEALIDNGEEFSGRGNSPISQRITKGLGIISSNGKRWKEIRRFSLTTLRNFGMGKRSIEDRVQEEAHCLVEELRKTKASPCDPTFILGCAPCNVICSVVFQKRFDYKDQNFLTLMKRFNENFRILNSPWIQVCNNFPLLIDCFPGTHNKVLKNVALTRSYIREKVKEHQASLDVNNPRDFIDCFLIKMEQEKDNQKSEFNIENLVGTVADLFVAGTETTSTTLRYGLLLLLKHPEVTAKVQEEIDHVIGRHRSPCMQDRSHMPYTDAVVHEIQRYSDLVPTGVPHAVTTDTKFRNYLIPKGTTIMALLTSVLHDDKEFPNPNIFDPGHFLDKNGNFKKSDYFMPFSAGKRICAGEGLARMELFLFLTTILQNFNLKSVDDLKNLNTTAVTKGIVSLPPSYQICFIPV
Protocol: as §1, §2

clinical = details: human, plasma
[4] = Permeability of pemigatinib (statement, no method given); assay type: in vitro ADME
[5] = Mass balance and metabolite identification (human ADME) data; assay type: in vivo
CYP2B6 = biological target: T3, CYP2B6 (Homo sapiens, UniProt P20813); test: In vitro metabolism of pemigatinib by recombinant human CYP2B6; assay type: in vitro ADME
T3 sequence (P20813 1-491): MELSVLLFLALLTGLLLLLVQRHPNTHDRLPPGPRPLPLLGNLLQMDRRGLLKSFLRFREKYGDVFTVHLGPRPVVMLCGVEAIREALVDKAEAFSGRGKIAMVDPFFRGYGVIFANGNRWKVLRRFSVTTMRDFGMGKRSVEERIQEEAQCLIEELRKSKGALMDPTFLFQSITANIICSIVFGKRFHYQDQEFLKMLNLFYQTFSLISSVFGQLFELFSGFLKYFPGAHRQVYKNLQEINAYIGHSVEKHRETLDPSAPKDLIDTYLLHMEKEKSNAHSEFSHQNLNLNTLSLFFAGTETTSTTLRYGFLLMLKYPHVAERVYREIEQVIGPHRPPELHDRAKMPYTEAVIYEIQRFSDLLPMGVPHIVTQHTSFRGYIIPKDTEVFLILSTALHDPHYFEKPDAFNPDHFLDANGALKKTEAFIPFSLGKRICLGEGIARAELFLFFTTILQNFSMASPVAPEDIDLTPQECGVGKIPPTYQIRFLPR
Protocol: as §1, §2

CYP2C19 = CYP2C19 (Homo sapiens, UniProt P33261); test: In vitro metabolism of pemigatinib by recombinant human CYP2C19; assay type: in vitro ADME
Chain of CYP2C19 (P33261 whole entry): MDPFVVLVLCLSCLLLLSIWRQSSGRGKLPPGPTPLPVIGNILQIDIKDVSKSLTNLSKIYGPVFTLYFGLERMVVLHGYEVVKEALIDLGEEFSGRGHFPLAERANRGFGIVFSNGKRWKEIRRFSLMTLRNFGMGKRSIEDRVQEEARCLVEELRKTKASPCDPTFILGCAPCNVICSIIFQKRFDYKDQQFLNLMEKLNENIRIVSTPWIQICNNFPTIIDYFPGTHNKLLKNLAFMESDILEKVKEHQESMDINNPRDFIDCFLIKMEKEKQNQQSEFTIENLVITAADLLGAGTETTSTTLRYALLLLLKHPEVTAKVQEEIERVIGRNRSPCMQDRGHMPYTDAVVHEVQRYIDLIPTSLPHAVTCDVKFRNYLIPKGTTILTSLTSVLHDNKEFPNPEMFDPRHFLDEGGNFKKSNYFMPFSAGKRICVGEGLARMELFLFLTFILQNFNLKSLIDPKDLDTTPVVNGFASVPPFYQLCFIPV
Protocol: as §1, §2

CYP2C9 = CYP2C9 (Homo sapiens, UniProt P11712); test: In vitro metabolism of pemigatinib by recombinant human CYP2C9; assay type: in vitro ADME
Chain of CYP2C9 (P11712 whole entry): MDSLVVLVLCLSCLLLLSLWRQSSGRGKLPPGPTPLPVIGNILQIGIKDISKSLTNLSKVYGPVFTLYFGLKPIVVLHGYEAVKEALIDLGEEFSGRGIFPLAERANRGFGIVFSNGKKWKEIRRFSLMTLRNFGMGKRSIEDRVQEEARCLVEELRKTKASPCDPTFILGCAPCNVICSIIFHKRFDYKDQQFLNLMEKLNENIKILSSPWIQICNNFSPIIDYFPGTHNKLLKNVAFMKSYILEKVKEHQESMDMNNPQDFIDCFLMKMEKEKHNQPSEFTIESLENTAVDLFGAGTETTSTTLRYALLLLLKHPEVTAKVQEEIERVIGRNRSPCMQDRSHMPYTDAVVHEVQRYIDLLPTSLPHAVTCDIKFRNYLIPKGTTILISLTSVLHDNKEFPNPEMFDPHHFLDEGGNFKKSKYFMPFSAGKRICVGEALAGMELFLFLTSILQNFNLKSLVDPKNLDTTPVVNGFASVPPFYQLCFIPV
Protocol: as §1, §2

CYP1A2 = biological target: T4, CYP1A2 (Homo sapiens, UniProt P05177); test: In vitro metabolism of pemigatinib by recombinant human CYP1A2; assay type: in vitro ADME
T4 sequence (P05177 1-516): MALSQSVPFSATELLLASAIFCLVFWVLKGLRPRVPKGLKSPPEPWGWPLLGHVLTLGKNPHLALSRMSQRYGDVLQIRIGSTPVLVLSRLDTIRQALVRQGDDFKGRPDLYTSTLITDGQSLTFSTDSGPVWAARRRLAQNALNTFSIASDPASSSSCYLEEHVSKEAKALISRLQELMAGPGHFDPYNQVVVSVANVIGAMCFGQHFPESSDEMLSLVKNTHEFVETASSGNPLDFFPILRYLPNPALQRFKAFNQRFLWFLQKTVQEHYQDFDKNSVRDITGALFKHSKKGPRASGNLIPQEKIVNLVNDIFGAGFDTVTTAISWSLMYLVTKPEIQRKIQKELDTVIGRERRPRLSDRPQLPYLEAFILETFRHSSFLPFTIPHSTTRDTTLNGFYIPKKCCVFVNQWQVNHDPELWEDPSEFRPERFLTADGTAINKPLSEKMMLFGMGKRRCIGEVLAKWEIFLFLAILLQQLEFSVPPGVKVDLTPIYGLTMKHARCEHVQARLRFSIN
Protocol: as §1, §2

[6] = Phase I dose escalation and dose expansion study, observed PK in cancer patients; assay type: in vivo; details: human, plasma, geometric mean; for AUC: read-out: Observed AUCss; for Cmax: read-out: Observed Cmax, ss
Protocol: The pemigatinib PBPK model was developed from healthy volunteer was used to describe cancer patients PK data from phase I dose escalation and dose expansion study (6-20 mg). The model was used to predict pemigatinib plasma concentration-time curves in cancer patients after multiple oral dose of 6, 9, 13.5 and 20 mg pemigatinib because only one patient was dosed for 1, 2 and 4 mg, respectively.

human liver microsomes = details: 0.5 h, 1 μM, pH 7.4
Protocol: Aliquots were taken at 0, 10, 20, and 30 minutes and denatured with methanol. After centrifugation to remove the denatured proteins, the resulting supernatants were analyzed by LC/MS.

[7] = Cohort 2: 13.5 mg pemigatinib alone or with rifampin 600 mg QD, geometric mean
[8] = Cohort 2: 13.5 mg pemigatinib alone or with rifampin 600 mg QD, mean ± SD
[9] = Cohort 2: 13.5 mg pemigatinib alone or with rifampin 600 mg QD
[10] = Cohort 1: 4.5 mg pemigatinib alone or with itraconazole 200 mg QD, geometric mean
[11] = Cohort 1: 4.5 mg pemigatinib alone or with itraconazole 200 mg QD, mean ± SD
[12] = pemigatinib with/without itraconazole, geometric mean
[13] = Cohort 1 (n=18): pemigatinib 4.5 mg alone and with itraconazole

CCN1C(=O)N(c2c(F)c(OC)cc(OC)c2F)Cc2cnc3[nH]c(CN4CCOCC4)cc3c21 [Pemigatinib + rifampin]
AUC0-t [1, 7]: 0.28 µM·h
AUC0-∞ [1, 7]: 0.292 µM·h
CL/F [1, 7]: 94.7 L/h
Cmax [1, 7]: 66.9 nM
t1/2 [1, 7]: 4.7 h and 4.69 h
AUC0-t [1, 8]: 0.289 ± 0.0749 µM·h
AUC0-∞ [1, 8]: 0.301 ± 0.0755 µM·h
CL/F [1, 8]: 97.5 ± 23.8 L/h
t1/2 [1, 8]: 5.05 ± 2.76 h
Tmax [1, 9]: 1.00 h
Cmax ([1]; Cohort 2: healthy volunteers n=18, single oral 13.5 mg pemigatinib fasted, alone or with rifampin 600 mg QD, mean ± SD): 69.7 ± 20 nM
Change in pemigatinib exposure on coadministration ([1]; with potent CYP3A4 inhibitor or inducer, healthy volunteers): clinically significant decrease
Safety and tolerability (overall conclusion) [2]: safe and generally well tolerated
Decrease in half-life of pemigatinib following rifampin coadministration [3]: 63%

CCN1C(=O)N(c2c(F)c(OC)cc(OC)c2F)Cc2cnc3[nH]c(CN4CCOCC4)cc3c21 [Pemigatinib, 3-(2,6-difluoro-3,5-dimethoxyphenyl)-1-ethyl-8-(morpholin-4-ylmethyl)-1,3,4,7-tetrahydro-2H-pyrrolo[3′,2′: 5,6]pyrido[4,3-d]pyrimidin-2-one]
Extent of in vitro metabolism by CYP3A4 (in words) (CYP3A4): predominantly metabolized; also recorded: metabolized to the greatest extent
Average Percent (N = 2) of Pemigatinib Remaining vs Control (30 mins) (CYP3A4; recombinant CYP3A4, pemigatinib 1 μM, 30 min): 14%
Extent of in vitro metabolism by CYP2D6 (in words) (CYP2D6): negligible
Average Percent (N = 2) of Pemigatinib Remaining vs Control (30 mins) (CYP2D6; recombinant CYP2D6, pemigatinib 1 μM, 30 min): 94%
Extent of in vitro metabolism by CYP2C8 (in words) (CYP2C8): negligible
Average Percent (N = 2) of Pemigatinib Remaining vs Control (30 mins) (CYP2C8; recombinant CYP2C8, pemigatinib 1 μM, 30 min): 94%
AUC0-t (clinical; oral, 4.5 mg): 0.674 ± 0.246 µM·h
AUC(0-inf) (clinical; oral, 4.5 mg): 0.712 ± 0.252 µM·h
Cmax (clinical; oral, 4.5 mg): 55.2 nM
Tmax (clinical; oral, 4.5 mg): 2 h
Vd/F (clinical; oral, 4.5 mg): 244 ± 75.8 L
half-life (clinical; oral, 4.5 mg): 11.8 h
AUC(0-inf) (clinical; oral, 13.5 mg): 2.04 ± 0.556 µM·h
Cmax (clinical; oral, 13.5 mg): 176 nM
Tmax (clinical; oral, 13.5 mg): 1.5 h
Vd/F (clinical; oral, 13.5 mg): 267 ± 73.1 L
half-life (clinical; oral, 13.5 mg): 12.7 h
AUC (clinical; po, 4.5 mg): 0.672 µM·h
Cmax (clinical; po, 4.5 mg): 60.1 ± 25.3 nM
Cmax (clinical; po, 13.5 mg): 187 ± 63.3 nM
Permeability of pemigatinib (in words) [4]: high permeability
Oral absorption of pemigatinib (in words) ([5]; mass balance and metabolite identification data): nearly complete
Renal excretion (unchanged pemigatinib excreted in urine) ([5]; mass balance data): ~1.0 % of the dose
Unchanged pemigatinib recovered in feces ([5]; mass balance data): 1.3 % of the administered radioactive dose
Extent of in vitro metabolism by CYP2B6 (in words) (CYP2B6): negligible
Average Percent (N = 2) of Pemigatinib Remaining vs Control (30 mins) (CYP2B6; recombinant CYP2B6, pemigatinib 1 μM, 30 min): 96%
AUC0-t [1, 10]: 0.634 µM·h
AUC0-∞ [1, 10]: 0.672 µM·h
CL/F [1, 10]: 13.7 L/h
CL/F [1, 11]: 14.5 ± 4.55 L/h
t1/2 [1, 11]: 12.1 ± 2.74 h
AUC0-t [1, 7]: 1.9 µM·h
AUC0-∞ [1, 7]: 1.96 µM·h
CL/F [1, 7]: 14.1 L/h
AUC0-t [1, 8]: 1.98 ± 0.526 µM·h
CL/F [1, 8]: 14.8 ± 4.86 L/h
t1/2 [1, 8]: 12.9 ± 2.90 h
Tmax [1, 9]: 1.0 h
Oral clearance of pemigatinib (in words) ([1]; in vivo, po): low oral clearance
AUC Ratio, Observed [1, 12]: 1.88
Cmax Ratio, Observed [1, 12]: 1.17
Cmax ([1]; read-out: Observed Cmax, single oral 13.5 mg, geometric mean): 158 nM
Extent of in vitro metabolism by CYP2C19 (in words) (CYP2C19): negligible
Average Percent (N = 2) of Pemigatinib Remaining vs Control (30 mins) (CYP2C19; recombinant CYP2C19, pemigatinib 1 μM, 30 min): 95%
Extent of in vitro metabolism by CYP2C9 (in words) (CYP2C9): negligible
Average Percent (N = 2) of Pemigatinib Remaining vs Control (30 mins) (CYP2C9; recombinant CYP2C9, pemigatinib 1 μM, 30 min): 88%
Extent of in vitro metabolism by CYP1A2 (in words) (CYP1A2): negligible
Average Percent (N = 2) of Pemigatinib Remaining vs Control (30 mins) (CYP1A2; recombinant CYP1A2, pemigatinib 1 μM, 30 min): 92%
AUC ([6]; multiple oral dose 6 mg): 1.11 µM·h
Cmax ([6]; multiple oral dose 6 mg): 101 nM
AUC ([6]; multiple oral dose 9 mg): 1.51 µM·h
Cmax ([6]; multiple oral dose 9 mg): 161 nM
AUC ([6]; multiple oral dose 13.5 mg): 2.6 µM·h
Cmax ([6]; multiple oral dose 13.5 mg): 175 nM
AUC ([6]; multiple oral dose 20 mg): 4.18 µM·h
Cmax ([6]; multiple oral dose 20 mg): 380 nM
Dry mouth TEAE, % [2, 13]: (11.1) %
Dry skin TEAE, % [2, 13]: (11.1) %
Headache TEAE, % [2, 13]: (16.7) %
Nausea TEAE, % [2, 13]: (5.6) %
Paraesthesia TEAE, % [2, 13]: (0) %
Rash papular TEAE, % [2, 13]: (11.1) %
Somnolence TEAE, % [2, 13]: (11.1) %
Vision blurred TEAE, % [2, 13]: (11.1) %
Most common TEAE ([2]; both cohorts): headache
Serious TEAEs or deaths ([2]; both cohorts): no serious TEAEs or deaths
TEAEs of grade 3 or higher ([2]; both cohorts): no TEAEs of grade 3 or high
Treatment discontinuations or dose interruptions due to TEAEs ([2]; both cohorts): no treatment discontinuations or dose interruptions due to TEAEs
Safety and tolerability (overall conclusion) [2]: safe and generally well tolerated

Cc1nc2c([nH]1)c(=O)n(C)c(=O)n2Cc1ccco1 [Furafylline]
Mean Percent of Pemigatinib Remaining After 30-Minute Incubation (N = 3) (human liver microsomes): 67 ± 1%

O=c1c(O)c(-c2ccc(O)c(O)c2)oc2cc(O)cc(O)c12 [Quercetin]
Mean Percent of Pemigatinib Remaining After 30-Minute Incubation (N = 3) (human liver microsomes): 77 ± 1%

Reference: patent publication US11628162B2, “Methods of treating cancer with an FGFR inhibitor” (Incyte Corporation, priority 2019, dated 2023)
